Data published in patent US20250241923A1, “A DUAL SELECTIVE PI3K DELTA AND GAMMA INHIBITORS AND/OR A SALT-INDUCIBLE KINASE 3 INHIBITOR FOR TREATING SOLID TUMORS” (Incozen Therapeutics Pvt. Ltd, priority 2022, published 2025).
Entries after “also recorded” stand apart in the source; their conditions may differ. Blank lines part the entries; values can stand above or below the compound they belong to.

Columns and labels:
[1] = Metabolic stability in liver microsomes, dog; format: in vitro ADME
Text: (§1) In in vitro studies using liver microsomes, the metabolic stability of tenalisib followed the rank order of rat>human>dog>monkey>mouse (Table 3).

PI3Kγ [2] = target: T1, PI3Kγ (Mus musculus, UniProt Q9JHG7); test: PI3K isoform cell-based assay: c5a induced pAKT in RAW macrophages
T1 construct: endogenous in cells; host or cells: RAW macrophages (c5a induced pAKT)

[3] = Pharmacokinetics, oral bioavailability in rats; format: in vivo; details: rat, plasma
Protocol: (§2) Pharmacokinetic studies following single-dose and repeat dose administration were performed in mice, rats, dogs, humans and monkeys. Tenalisib plasma concentrations were determined by a validated LC-MS/MS method. The pharmacokinetic profile of tenalisib was evaluated following both oral and intravenous administration. […] In an in vitro study using liver microsomes, the metabolic stability followed a rank order of rat>human>dog>monkey>mouse.

[4] = Metabolic stability in liver microsomes, monkey; format: in vitro ADME
Text: as §1

[5] = Metabolic stability in liver microsomes, human; format: in vitro ADME
Text: as §1

[6] = Pharmacokinetics, oral bioavailability in mice; format: in vivo; details: mouse, plasma
Protocol: as §2

[7] = Tissue distribution upon single oral administration; format: in vivo; details: single oral administration 10 mg/kg bodyweight; male wistar rats
Protocol: Tissue distribution upon single oral administration (10 mg/kg bodyweight) of tenalisib was studied in male wistar rats. The rank order of Cmax and AUC in Wistar rats was liver>kidney>heart>plasma>thymus>spleen>serum>lung>blood>brain.

[8] = test system: locally advanced or metastatic breast cancer; test: Phase II randomized open label study in breast cancer patients; format: in vivo, human
Protocol: This is a Phase II, randomized, open label study, designed to evaluate the preliminary efficacy and safety of tenalisib (Compound A) at two dose levels (800 mg BID and 1200 mg BID) in 40 patients with locally advanced or metastatic breast cancer. 20 patients will be enrolled in each of Group 1 (tenalisib 800 mg BID) and Group 2 (tenalisib 1200 mg BID). Both groups will be run in parallel.
• 1. Provision of full informed consent prior to any study-specific procedures. • 2. Patients must be ≥18 years of age, at the time of signing informed consent. • 3. Female patients who have histologically and/or cytologically confirmed locally advanced or metastatic breast cancer that has progressed following at least one line of therapy. • 4. Patients with at least one measurable lesion per RECIST version 1.1 at baseline that can be accurately assessed by CT scan or MRI and is suitable for repeated assessment at follow up-visits. • 5. ECOG performance status 0 to 2. • 6. Life expectancy of at least 3 months. • 7. […] Female patient of childbearing potential should be willing to use a medically acceptable method of contraception as defined in Appendix B while participating in the study and for 30 days after the last dose of study drug AND must have a negative serum pregnancy test within 3 days prior to Cycle 1 Day 1 (C1D1). • 9. Ability to swallow and retain oral medication. • 10. Willingness and capability to comply with the study requirements.

[9] = Metabolic stability in liver microsomes, mouse; format: in vitro ADME
Text: as §1

plasma proteins [10] = test: In vitro protein binding, rat plasma; format: in vitro ADME
Protocol: (§3) In vitro protein binding studies were performed using rat, dog, monkey and human plasma. Binding of tenalisib to plasma proteins was >96% across all species.

plasma proteins [11] = test: In vitro protein binding, monkey plasma; format: in vitro ADME
Protocol: as §3

plasma proteins [12] = test: In vitro protein binding, dog plasma; format: in vitro ADME
Protocol: as §3

PI3Kβ [13] = target: PI3Kβ (Homo sapiens, UniProt P42338); test: PI3K isoform enzyme assay (HTRF), PI3Kβ; format: biochemical; details: 100 μM ATP
[14] = In vitro plasma stability, rat plasma; format: in vitro ADME; details: LC-MS/MS
Protocol: (§4) In vitro plasma stability studies were performed using rat, dog, monkey and human plasma. The concentration of tenalisib was measured by LC-MS/MS.

PI3Kα = target: T2, PI3Kα (Mus musculus, UniProt P42337); test: PI3K isoform cell-based assay: PI3K α-mediated phosphorylation of AKT in 3T3 fibroblasts; details: pAKT by PDGF or lysophosphatidic acid in 3T3 fibroblasts
T2 construct: endogenous in cells; host or cells: 3T3 fibroblasts (pAKT)

[15] = test system: MC38 syngeneic murine colon carcinoma; test: MC38 syngeneic murine colon carcinoma C57BL/6 model; format: in vivo; details: day 22; daily tenalisib; C57BL/6 female mice
Protocol: Daily tenalisib alone and in combination with anti-PD-1 (clone: RMP1-14) was evaluated for tumor growth inhibition (TGI) in the MC38 syngeneic murine colon carcinoma model in immunocompetent C57BL/6 female mice.

[16] = Metabolic stability in liver microsomes, rat; format: in vitro ADME
Text: as §1

PI3Kβ [17] = target: T3, PI3Kβ (Mus musculus, UniProt Q8BTI9); test: PI3K isoform cell-based assay: PI3K β-mediated phosphorylation of AKT in 3T3 fibroblasts; details: pAKT by PDGF or lysophosphatidic acid in 3T3 fibroblasts
T3 construct: endogenous in cells; host or cells: 3T3 fibroblasts (pAKT)

PI3Kγ [18] = target: T4, PI3Kγ (Homo sapiens, UniProt P48736); test: fMLP induced CD63 expression in human whole blood; format: cell-based; design: endogenous in cells; host or cells: human whole blood (fMLP induced CD63); details: whole blood from healthy human subjects; flow cytometry; read-out: EC50 of fMLP (PI3Kγ) mediated CD63 expression
T4 sequence (P48736 whole entry): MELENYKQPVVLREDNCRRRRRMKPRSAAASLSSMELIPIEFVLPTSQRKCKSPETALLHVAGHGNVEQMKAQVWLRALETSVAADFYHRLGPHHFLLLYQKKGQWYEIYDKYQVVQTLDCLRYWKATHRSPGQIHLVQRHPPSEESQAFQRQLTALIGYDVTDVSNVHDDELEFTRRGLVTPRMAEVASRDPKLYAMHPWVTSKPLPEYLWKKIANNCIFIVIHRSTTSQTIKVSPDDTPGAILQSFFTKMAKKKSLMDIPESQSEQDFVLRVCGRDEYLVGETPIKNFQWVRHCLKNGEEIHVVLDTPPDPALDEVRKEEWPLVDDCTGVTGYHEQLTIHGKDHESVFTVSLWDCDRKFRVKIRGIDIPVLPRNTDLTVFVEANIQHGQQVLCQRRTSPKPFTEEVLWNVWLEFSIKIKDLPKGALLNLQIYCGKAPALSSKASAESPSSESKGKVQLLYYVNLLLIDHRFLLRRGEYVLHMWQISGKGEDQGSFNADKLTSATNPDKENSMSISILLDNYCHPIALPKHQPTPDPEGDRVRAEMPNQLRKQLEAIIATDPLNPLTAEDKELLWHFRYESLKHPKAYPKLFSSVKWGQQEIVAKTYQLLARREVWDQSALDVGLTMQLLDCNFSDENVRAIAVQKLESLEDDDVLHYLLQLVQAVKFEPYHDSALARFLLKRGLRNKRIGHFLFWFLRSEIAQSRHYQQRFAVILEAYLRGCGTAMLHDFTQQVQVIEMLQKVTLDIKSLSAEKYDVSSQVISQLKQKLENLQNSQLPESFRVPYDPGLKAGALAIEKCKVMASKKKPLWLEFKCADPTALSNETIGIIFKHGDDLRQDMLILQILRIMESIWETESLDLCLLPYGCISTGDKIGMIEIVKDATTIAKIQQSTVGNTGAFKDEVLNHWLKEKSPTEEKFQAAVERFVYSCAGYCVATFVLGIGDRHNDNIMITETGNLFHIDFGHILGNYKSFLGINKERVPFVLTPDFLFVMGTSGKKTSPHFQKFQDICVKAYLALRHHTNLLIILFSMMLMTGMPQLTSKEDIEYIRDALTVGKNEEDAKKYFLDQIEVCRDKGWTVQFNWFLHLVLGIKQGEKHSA

[19] = Pharmacokinetics, oral bioavailability in dogs; format: in vivo; details: dog, plasma
Protocol: as §2

[20] = In vitro plasma stability, dog plasma; format: in vitro ADME; details: LC-MS/MS
Protocol: as §4

[21] = In vitro plasma stability, monkey plasma; format: in vitro ADME; details: LC-MS/MS
Protocol: as §4

plasma proteins [22] = test: In vitro protein binding, human plasma; format: in vitro ADME
Protocol: as §3

PI3Kδ [23] = target: T5, PI3Kδ (Homo sapiens, UniProt O00329); test: anti-FcεR1 induced CD63 expression in human whole blood; format: cell-based; design: endogenous in cells; host or cells: human whole blood (anti-FcεR1 induced CD63); details: whole blood from healthy human subjects; flow cytometry; read-out: EC50 of anti-FcεR1 (PI3Kδ) mediated CD63 expression
T5 sequence (O00329 whole entry, canonical isoform): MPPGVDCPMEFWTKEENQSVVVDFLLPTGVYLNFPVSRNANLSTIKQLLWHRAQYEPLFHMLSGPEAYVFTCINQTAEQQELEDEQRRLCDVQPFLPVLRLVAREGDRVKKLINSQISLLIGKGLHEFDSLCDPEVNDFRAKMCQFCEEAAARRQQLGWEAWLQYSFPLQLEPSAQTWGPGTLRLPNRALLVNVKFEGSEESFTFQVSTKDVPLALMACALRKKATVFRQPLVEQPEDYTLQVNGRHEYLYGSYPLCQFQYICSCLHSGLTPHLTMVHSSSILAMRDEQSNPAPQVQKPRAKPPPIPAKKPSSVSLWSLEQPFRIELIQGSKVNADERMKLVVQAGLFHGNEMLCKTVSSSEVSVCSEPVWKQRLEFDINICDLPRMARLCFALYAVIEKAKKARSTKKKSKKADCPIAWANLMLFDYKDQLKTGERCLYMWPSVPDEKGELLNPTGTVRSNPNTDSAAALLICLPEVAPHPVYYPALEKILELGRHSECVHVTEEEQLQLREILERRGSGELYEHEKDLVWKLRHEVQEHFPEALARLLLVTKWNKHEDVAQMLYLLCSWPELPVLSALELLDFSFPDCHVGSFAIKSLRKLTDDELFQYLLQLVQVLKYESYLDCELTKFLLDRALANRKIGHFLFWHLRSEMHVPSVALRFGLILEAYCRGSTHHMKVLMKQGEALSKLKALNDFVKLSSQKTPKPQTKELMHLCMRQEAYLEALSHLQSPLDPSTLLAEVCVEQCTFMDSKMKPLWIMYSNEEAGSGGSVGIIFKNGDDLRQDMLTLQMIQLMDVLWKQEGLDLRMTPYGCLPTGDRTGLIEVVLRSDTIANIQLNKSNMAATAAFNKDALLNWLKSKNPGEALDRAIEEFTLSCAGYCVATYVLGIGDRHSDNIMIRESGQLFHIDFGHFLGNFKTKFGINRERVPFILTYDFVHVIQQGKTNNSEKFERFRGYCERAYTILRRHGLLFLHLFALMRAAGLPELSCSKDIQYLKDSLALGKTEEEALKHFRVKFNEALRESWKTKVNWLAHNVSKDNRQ
T5 sequence (P27986 whole entry partner, canonical isoform): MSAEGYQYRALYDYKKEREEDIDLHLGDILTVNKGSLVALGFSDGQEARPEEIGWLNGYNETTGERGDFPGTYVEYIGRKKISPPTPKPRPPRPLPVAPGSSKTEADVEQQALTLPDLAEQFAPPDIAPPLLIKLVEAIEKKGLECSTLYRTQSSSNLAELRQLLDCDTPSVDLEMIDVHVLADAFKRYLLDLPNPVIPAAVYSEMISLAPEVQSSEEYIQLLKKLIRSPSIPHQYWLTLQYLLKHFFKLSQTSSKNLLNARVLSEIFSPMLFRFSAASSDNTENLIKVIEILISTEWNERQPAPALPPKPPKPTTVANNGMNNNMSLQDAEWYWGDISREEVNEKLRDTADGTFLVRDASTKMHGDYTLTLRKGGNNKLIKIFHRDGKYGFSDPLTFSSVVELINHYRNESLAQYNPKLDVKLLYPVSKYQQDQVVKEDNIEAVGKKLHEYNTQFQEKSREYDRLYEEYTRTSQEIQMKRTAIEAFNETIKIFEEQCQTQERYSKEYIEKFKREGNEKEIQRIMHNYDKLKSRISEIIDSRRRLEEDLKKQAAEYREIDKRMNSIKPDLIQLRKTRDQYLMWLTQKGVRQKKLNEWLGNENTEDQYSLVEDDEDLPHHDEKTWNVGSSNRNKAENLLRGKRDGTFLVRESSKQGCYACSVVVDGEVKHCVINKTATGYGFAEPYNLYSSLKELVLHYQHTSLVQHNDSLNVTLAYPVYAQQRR

PI3Kδ [24] = target: T5, PI3Kδ; test: PI3K isoform cell-based assay: anti-IgM induced human B-cell proliferation; design: endogenous in cells; host or cells: human B cells (anti-IgM proliferation); human whole blood (anti-FcεR1 induced CD63)
[25] = Metabolic stability in liver microsomes, rank order across species; format: in vitro ADME, rat, human, dog, monkey, mouse
Protocol: as §2, §1

[26] = Pharmacokinetic studies, absorption and clearance across the tested species; format: in vivo, mice, rats, dogs, humans and monkeys
Protocol: as §2

PI3Kγ [27] = target: T4, PI3Kγ; test: PI3K isoform enzyme assay (HTRF), PI3Kγ; format: biochemical; details: 100 μM ATP
[28] = In vitro plasma stability, human plasma; format: in vitro ADME; details: LC-MS/MS
Protocol: as §4

PI3Kδ [29] = target: T5, PI3Kδ; test: PI3K isoform enzyme assay (HTRF), PI3Kδ; format: biochemical
SIK3 = SIK3 (Homo sapiens, UniProt Q9Y2K2); test: SIK3 inhibition assay (enzymatic radiometric); format: biochemical; details: 10 μM ATP
Sequence of SIK3 (Q9Y2K2 whole entry): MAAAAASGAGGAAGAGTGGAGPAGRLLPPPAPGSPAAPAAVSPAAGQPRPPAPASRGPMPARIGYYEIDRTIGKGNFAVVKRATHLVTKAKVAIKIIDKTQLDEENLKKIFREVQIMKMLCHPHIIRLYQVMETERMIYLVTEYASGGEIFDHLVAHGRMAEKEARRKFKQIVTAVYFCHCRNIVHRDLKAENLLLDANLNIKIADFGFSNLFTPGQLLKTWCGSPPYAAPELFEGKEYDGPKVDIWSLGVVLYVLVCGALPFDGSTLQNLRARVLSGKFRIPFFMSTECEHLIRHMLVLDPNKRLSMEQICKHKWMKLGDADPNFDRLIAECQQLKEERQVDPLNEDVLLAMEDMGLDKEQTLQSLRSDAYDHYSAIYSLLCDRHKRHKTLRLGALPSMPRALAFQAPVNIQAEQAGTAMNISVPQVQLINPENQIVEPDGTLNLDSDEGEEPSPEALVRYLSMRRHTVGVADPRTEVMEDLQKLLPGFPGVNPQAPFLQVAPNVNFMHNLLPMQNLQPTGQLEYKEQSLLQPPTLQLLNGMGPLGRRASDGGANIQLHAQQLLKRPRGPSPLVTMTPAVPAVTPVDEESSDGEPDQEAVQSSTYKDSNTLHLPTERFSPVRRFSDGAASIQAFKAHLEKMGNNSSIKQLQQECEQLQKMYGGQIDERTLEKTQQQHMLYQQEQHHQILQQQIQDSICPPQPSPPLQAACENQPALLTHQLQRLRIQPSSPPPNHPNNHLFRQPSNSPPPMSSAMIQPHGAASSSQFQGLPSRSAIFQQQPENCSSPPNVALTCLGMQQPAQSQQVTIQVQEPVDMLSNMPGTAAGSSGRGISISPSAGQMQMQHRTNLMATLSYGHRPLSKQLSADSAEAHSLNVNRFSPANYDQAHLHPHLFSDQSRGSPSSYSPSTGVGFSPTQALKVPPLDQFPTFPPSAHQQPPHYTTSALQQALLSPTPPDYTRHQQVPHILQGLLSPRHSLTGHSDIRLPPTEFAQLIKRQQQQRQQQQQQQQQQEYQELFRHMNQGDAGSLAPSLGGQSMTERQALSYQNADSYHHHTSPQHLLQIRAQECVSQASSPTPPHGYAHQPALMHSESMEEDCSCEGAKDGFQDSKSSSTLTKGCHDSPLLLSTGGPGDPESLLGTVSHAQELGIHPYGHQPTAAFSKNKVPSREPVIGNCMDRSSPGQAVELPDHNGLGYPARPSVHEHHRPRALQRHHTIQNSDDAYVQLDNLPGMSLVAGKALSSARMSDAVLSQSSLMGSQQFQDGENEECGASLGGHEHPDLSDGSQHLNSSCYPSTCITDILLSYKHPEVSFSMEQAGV

[30] = test system: SK-OV-3 ovarian cancer cell line; test: Anti-proliferative effect of taxol and Compound (M) (Example 10), SK-OV-3; format: cell-based; details: Compound (M) 3 μM added to taxol (6 nM, FIG. 7)
[31] = test system: MCF-7 breast cancer cell lines; test: cells; details: Homo sapiens, MCF7, 72 h, read-out: growth inhibition

- % Metabolic Stability [1]: 52.2%
- EC50 (PI3Kγ [2]): 22.3 nM
- bioavailability [3]: > 72.4%
- % Metabolic Stability [4]: 29.6%
- % Metabolic Stability [5]: 73.9%
- bioavailability [6]: 21.6%
- % Metabolic Stability [9]: 26.0%
- Binding to plasma proteins (plasma proteins [10]): > 96%
- Binding to plasma proteins (plasma proteins [11]): > 96%
- Binding to plasma proteins (plasma proteins [12]): > 96%
- IC50 (PI3Kβ [13]): 4020 nM
- plasma stability [14]: stable
- EC50 (PI3Kα): > 10000 nM
- % Metabolic Stability [16]: 79.3%
- EC50 (PI3Kβ [17]): 2070 nM
- EC50 (PI3Kγ [18]): 37.8 nM
- bioavailability [19]: > 100%
- plasma stability [20]: stable
- plasma stability [21]: stable
- Binding to plasma proteins (plasma proteins [22]): > 96%
- EC50 (PI3Kδ [23]): 39 nM
- selectivity over the α and β isoforms (cell-based assay) (PI3Kδ [24]; PI3K δ/γ versus PI3K α and β): selective
- EC50 (PI3Kδ [24]; anti-IgM induced human B-cell proliferation): 38.1 nM
- metabolic stability rank order [25]: rat>human>dog>monkey>mouse
- Absorption [26]: rapid
- clearance [26]: moderate
- IC50 (PI3Kγ [27]): 33.2 nM
- plasma stability [28]: stable
- IC50 (PI3Kδ [29]; HTRF, 100 μM ATP): 24.5 nM
Compound: CC[C@H](Nc1ncnc2[nH]cnc12)c1oc2ccccc2c(=O)c1-c1cccc(F)c1 [Compound A, (S)-2-(1-(9H-purin-6-ylamino)propyl)-3-(3-fluorophenyl)-4H-chromen-4-one]
- rank order of Cmax and AUC in tissues [7]: liver>kidney>heart>plasma>thymus>spleen>serum>lung>blood>brain
- Clinical Benefit Rate, % (CBR = PR + CR + SD ≥24 weeks) ([8]; 800 mg BID (N = 20)): (55) %
- Clinical Benefit Rate, n (CBR = PR + CR + SD ≥24 weeks) ([8]; 800 mg BID (N = 20)): 11
- Disease Control rate (DCR), % ([8]; 800 mg BID (N = 20)): (65) %
- Duration of Clinical Benefit, median ([8]; 800 mg BID (N = 20)): 9.36
- Duration of Response (DOR) in ORR patients, median ([8]; 800 mg BID (N = 20)): 7.53
- Duration of Treatment (DOT), median ([8]; 800 mg BID (N = 20)): 5.55
- Objective Response rate (ORR), % ([8]; 800 mg BID (N = 20)): (10) %
- Partial Response, % ([8]; 800 mg BID (N = 20)): (10) %
- Progressive disease, % ([8]; 800 mg BID (N = 20)): (25) %
- Stable disease, % ([8]; 800 mg BID (N = 20)): (55) %
- Clinical Benefit Rate, % (CBR = PR + CR + SD ≥24 weeks) ([8]; 1200 mg BID (N = 20)): (60) %
- Clinical Benefit Rate, n (CBR = PR + CR + SD ≥24 weeks) ([8]; 1200 mg BID (N = 20)): 12
- Disease Control rate (DCR), % ([8]; 1200 mg BID (N = 20)): (70) %
- Duration of Clinical Benefit, median ([8]; 1200 mg BID (N = 20)): 7.46
- Duration of Response (DOR) in ORR patients, median ([8]; 1200 mg BID (N = 20)): 9.36
- Duration of Treatment (DOT), median ([8]; 1200 mg BID (N = 20)): 5.63
- Objective Response rate (ORR), % ([8]; 1200 mg BID (N = 20)): (15) %
- Partial Response, % ([8]; 1200 mg BID (N = 20)): (15) %
- Progressive disease, % ([8]; 1200 mg BID (N = 20)): (20) %
- Stable disease, % ([8]; 1200 mg BID (N = 20)): (55) %
- Clinical Benefit Rate, % (CBR = PR + CR + SD ≥24 weeks) ([8]; All (N = 40)): (57.5) %
- Clinical Benefit Rate, n (CBR = PR + CR + SD ≥24 weeks) ([8]; All (N = 40)): 23
- Disease Control rate (DCR), % ([8]; All (N = 40)): (67.5) %
- Duration of Clinical Benefit, median ([8]; All (N = 40)): 7.46
- Duration of Response (DOR) in ORR patients, median ([8]; All (N = 40)): 9.36
- Duration of Treatment (DOT), median ([8]; All (N = 40)): 5.60
- Objective Response rate (ORR), % ([8]; All (N = 40)): (12.5) %
- Partial Response, % ([8]; All (N = 40)): (12.5) %
- Progressive disease, % ([8]; All (N = 40)): (22.5) %
- Stable disease, % ([8]; All (N = 40)): (55) %
- TGI (Tumour Growth Inhibition) compared to control [15]: 29%
- selectivity over the α and β isoforms (enzyme assay) (PI3Kδ [29]; PI3K δ/γ versus PI3K α and β, listed as compound of formula (A)): several fold selectivity; also recorded: selective

- % Metabolic Stability [1]: 67.6%
- % Metabolic Stability [5]: 58.5%
- IC50 (SIK3): 237 nM
- selectivity over the SIK1 and SIK2 isoforms (SIK3): Selective over
- % Metabolic Stability [16]: 58.0%
Compound: CC[C@H](Nc1ncnc2[nH]c(O)nc12)c1oc2ccccc2c(=O)c1-c1cccc(F)c1 [Compound M, (S)-3-(3-fluorophenyl)-2-(1-((8-hydroxy-9H-purin-6-yl)amino)propyl)-4H-chromen-4-one]
- potentiation of the activity of taxol [30]: potentiated

Compound: COc1cccc2c1C(=O)c1c(O)c3c(c(O)c1C2=O)C[C@@](O)(C(=O)CO)C[C@@H]3O[C@H]1C[C@H](N)[C@H](O)[C@H](C)O1 [Doxorubicin]
- inhibition at 0.05 µM [31]: 42.8%
